Experiment [1] deals with T1, Tyrosine-protein kinase receptor TYRO3 (Homo sapiens) (UniProt Q06418).
T1 sequence (whole entry): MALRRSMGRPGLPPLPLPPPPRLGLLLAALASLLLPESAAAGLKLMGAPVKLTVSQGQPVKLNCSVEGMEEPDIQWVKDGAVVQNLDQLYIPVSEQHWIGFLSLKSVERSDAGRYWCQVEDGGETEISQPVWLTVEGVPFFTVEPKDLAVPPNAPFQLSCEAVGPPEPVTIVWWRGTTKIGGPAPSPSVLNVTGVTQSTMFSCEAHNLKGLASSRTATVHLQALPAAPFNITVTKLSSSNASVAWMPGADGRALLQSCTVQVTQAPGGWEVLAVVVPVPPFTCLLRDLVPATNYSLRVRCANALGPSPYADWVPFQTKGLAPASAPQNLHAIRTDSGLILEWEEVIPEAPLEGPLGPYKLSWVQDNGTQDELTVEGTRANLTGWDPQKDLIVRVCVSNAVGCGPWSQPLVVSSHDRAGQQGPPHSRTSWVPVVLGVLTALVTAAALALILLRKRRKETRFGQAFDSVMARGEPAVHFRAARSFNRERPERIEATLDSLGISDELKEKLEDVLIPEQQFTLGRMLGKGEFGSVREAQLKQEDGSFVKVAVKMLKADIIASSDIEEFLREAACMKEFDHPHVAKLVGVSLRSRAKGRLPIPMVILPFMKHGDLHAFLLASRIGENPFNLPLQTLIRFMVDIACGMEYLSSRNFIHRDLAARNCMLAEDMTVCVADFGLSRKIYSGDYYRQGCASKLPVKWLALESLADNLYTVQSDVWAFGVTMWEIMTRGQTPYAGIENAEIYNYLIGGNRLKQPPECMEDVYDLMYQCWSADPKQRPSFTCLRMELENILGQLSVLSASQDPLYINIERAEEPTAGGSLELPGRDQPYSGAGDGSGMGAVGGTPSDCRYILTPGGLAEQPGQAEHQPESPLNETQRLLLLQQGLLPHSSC
Kind of experiment: Selectivity interaction (Kinase panel (Z-LYTE Assay)) EUB0001632a TYRO3. The conditions noted are these: at 10 µM.

Experiment [2] concerns the target Myosin-IIIa (Homo sapiens) (UniProt Q8NEV4). Put plainly: Selectivity interaction (KinomeScan (DiscoverX)) EUB0000595a MYO3A. To be noted: at 10 µM.
Experiment [3] concerns Proto-oncogene tyrosine-protein kinase receptor Ret (Homo sapiens), P07949 [V804M]. Put plainly: (§1) Selectivity interaction (KinomeScan (DiscoverX)) EUB0000695a RET. To be noted: at 100 nM.
Experiment [4] deals with Proto-oncogene tyrosine-protein kinase receptor Ret (Homo sapiens), P07949 [V804L]. Described as §1. To be noted: at 100 nM.
Experiment [5] concerns Proto-oncogene tyrosine-protein kinase receptor Ret (Homo sapiens), P07949 [M918T]. The experiment is described as §1. To be noted: at 100 nM.
For experiment [6], the target named is Proto-oncogene tyrosine-protein kinase receptor Ret (Homo sapiens, UniProt P07949). Described as §1. To be noted: at 100 nM.
In experiment [7] the target is Dual specificity testis-specific protein kinase 1 (Homo sapiens) (UniProt Q15569). Put plainly: Selectivity interaction (KinomeScan (DiscoverX)) EUB0001049a TESK1. The conditions noted are these: at 1 µM.
Dual specificity testis-specific protein kinase 1 (Homo sapiens), sequence (Q15569 whole entry, looked up): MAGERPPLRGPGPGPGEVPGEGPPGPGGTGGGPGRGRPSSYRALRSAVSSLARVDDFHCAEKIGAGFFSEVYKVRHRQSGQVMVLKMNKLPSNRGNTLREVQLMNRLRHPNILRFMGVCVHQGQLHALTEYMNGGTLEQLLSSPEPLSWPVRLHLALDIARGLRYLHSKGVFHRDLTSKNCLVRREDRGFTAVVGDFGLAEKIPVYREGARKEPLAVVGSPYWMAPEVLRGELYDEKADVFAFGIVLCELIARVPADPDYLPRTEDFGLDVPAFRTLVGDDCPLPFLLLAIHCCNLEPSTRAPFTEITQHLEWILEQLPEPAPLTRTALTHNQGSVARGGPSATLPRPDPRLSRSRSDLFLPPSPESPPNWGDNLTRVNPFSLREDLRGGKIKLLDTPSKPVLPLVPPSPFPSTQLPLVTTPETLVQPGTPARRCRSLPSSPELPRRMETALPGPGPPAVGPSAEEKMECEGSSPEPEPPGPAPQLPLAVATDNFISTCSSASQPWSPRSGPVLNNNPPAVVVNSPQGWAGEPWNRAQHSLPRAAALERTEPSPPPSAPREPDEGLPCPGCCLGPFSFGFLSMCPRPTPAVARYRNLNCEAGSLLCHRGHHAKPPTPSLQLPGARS
For experiment [8], the target named is Tyrosine-protein kinase Fes/Fps (Homo sapiens) (UniProt P07332). Kind of experiment: Selectivity interaction (KinomeScan (DiscoverX)) EUB0000655a FES. To be noted: at 10 µM.
Tyrosine-protein kinase Fes/Fps (Homo sapiens), sequence (P07332 whole entry): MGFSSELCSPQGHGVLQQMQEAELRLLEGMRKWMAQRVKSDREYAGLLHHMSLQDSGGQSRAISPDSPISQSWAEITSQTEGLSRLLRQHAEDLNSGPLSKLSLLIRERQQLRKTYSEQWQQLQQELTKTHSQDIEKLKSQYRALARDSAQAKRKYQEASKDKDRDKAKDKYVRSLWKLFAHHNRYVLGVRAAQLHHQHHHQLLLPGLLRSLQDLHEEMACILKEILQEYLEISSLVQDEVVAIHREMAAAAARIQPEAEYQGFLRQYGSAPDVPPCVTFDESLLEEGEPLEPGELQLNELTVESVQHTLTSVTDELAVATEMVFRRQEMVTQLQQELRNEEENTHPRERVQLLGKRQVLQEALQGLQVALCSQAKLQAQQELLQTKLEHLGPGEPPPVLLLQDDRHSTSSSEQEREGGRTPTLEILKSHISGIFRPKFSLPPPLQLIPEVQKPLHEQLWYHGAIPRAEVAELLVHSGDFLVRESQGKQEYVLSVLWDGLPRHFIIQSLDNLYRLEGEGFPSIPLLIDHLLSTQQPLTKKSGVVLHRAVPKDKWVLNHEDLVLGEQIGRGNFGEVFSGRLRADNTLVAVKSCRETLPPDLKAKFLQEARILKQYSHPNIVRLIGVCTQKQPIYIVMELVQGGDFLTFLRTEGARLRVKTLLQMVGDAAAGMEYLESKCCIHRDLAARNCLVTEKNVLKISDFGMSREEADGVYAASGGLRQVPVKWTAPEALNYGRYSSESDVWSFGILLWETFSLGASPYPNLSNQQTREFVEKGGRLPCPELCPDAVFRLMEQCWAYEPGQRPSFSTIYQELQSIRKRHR
For experiment [9], the target named is Tyrosine-protein kinase Fgr (Homo sapiens) (UniProt P09769). Put plainly: Selectivity interaction (KinomeScan (DiscoverX)) EUB0000618a FGR. To be noted: at 10 µM.
Tyrosine-protein kinase Fgr (Homo sapiens), sequence (P09769 2-529 limits assumed): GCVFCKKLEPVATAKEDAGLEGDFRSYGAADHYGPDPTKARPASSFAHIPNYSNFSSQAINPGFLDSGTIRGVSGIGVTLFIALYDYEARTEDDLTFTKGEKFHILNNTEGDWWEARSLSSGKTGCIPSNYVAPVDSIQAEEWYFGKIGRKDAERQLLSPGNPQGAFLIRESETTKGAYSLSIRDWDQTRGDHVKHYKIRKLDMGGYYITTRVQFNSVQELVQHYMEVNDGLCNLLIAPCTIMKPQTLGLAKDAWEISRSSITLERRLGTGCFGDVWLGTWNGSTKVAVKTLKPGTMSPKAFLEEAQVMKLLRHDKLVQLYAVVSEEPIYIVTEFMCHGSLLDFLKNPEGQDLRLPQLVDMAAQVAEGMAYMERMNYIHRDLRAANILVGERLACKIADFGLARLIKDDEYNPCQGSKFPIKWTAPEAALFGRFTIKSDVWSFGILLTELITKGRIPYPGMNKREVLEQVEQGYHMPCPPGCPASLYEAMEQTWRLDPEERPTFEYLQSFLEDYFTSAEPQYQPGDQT
Experiment [10] addresses Protein polybromo-1 (Homo sapiens) (UniProt Q86U86). Put plainly: Selectivity interaction (Human bromodomain panel (DSF assay)) EUB0000233b PBRM1.
The target in experiment [11] is Tyrosine-protein kinase Fyn (Homo sapiens) (UniProt P06241). Kind of experiment: Selectivity interaction (KinomeScan (DiscoverX)) EUB0001079a FYN. The conditions noted are these: at 1 µM.
Tyrosine-protein kinase Fyn (Homo sapiens), sequence (P06241 2-537 limits assumed): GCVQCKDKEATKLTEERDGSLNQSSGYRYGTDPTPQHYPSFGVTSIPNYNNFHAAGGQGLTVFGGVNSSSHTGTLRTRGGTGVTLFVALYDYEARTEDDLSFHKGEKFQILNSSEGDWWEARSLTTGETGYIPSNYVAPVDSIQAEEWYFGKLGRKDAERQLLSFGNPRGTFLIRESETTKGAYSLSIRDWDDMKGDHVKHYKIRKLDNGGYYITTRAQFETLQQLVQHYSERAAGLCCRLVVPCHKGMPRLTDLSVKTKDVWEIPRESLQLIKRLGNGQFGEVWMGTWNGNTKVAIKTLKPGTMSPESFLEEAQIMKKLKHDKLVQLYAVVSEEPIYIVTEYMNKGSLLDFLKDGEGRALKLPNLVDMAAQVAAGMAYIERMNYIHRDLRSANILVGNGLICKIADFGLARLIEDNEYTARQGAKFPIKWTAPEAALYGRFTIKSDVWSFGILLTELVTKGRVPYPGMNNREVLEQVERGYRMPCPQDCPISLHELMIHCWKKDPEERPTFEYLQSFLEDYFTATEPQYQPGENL
Experiment [12] can be described thus: Selectivity interaction (KinomeScan (DiscoverX)) EUB0001079a PKNB. To be noted: at 1 µM.
Experiment [13] addresses T2, Serine/threonine-protein kinase D2 (Homo sapiens) (UniProt Q9BZL6).
T2 sequence (whole entry): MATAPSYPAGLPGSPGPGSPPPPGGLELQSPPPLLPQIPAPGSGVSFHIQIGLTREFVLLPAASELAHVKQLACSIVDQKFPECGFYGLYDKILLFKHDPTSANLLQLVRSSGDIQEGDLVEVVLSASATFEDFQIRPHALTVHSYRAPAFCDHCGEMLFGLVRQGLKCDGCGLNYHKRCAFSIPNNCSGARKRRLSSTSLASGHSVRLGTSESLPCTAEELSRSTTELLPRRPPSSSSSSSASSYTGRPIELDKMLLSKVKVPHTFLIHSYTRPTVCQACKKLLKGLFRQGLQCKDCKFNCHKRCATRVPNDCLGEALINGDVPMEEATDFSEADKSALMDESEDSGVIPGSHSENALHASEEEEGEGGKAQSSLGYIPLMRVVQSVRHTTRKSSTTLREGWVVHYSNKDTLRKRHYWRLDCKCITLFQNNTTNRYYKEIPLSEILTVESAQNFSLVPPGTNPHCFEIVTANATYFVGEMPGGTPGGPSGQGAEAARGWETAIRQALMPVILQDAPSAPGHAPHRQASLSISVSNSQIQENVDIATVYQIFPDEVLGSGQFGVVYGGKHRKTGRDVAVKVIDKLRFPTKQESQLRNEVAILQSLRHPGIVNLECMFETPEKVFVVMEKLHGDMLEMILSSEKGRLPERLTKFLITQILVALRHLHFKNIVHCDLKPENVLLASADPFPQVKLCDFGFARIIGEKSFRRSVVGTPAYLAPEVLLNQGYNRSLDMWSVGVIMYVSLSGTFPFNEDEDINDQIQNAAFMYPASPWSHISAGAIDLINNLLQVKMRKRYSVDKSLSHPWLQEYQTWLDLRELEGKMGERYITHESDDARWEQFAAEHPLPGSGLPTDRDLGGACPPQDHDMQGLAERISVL
Put plainly: Selectivity interaction (Millipore kinase profiler) EUB0000124b PRKD2. The conditions noted are these: at 10 µM.

Each structure is given as a SMILES string. Bounds are passed on as bounds.

Myosin-IIIa (Homo sapiens), sequence (Q8NEV4 whole entry): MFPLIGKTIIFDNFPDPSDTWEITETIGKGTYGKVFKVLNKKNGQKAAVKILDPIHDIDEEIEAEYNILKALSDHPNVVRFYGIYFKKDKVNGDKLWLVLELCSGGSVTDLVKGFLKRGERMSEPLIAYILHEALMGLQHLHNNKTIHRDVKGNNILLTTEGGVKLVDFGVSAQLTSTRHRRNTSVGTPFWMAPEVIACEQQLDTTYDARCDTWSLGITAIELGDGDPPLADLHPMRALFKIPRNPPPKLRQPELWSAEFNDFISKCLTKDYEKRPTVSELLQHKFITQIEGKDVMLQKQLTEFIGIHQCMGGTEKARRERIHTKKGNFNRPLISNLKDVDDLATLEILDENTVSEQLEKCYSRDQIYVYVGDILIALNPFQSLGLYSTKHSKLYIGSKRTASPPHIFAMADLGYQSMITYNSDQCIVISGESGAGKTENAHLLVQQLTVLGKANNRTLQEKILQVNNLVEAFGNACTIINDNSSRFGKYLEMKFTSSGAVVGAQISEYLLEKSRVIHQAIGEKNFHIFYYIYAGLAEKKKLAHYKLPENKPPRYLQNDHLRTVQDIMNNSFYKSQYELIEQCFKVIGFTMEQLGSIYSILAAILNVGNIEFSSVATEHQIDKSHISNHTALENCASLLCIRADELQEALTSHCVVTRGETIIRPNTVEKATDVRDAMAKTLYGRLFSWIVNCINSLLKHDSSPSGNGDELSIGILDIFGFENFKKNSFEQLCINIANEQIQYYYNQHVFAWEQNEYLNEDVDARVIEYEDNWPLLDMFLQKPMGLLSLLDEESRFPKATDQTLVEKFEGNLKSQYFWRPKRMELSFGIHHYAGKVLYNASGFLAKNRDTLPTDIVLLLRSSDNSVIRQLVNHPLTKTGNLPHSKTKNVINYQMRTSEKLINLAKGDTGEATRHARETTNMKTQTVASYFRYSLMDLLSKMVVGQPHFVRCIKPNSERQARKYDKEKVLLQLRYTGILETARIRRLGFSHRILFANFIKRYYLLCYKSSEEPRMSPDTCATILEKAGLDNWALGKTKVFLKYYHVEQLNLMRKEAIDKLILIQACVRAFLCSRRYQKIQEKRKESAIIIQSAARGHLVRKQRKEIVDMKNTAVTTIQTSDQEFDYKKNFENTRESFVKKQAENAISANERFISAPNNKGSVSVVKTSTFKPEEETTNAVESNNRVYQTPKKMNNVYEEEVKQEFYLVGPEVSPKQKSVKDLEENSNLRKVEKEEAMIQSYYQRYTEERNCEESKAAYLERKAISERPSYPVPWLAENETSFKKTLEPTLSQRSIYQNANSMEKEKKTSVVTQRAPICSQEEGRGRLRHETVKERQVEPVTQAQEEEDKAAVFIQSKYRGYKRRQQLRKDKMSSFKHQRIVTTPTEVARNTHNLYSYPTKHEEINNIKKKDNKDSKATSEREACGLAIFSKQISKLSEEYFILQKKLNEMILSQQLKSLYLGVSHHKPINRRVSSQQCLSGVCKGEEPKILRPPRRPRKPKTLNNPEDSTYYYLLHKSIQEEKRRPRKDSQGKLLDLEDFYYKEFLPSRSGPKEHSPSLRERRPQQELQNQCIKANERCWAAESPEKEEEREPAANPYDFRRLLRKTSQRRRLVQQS

As for `Cn1cc(-n2cnc3c(NCc4nc5cc(Cl)c(Cl)cc5[nH]4)nc(N4CCOCC4)nc32)cn1`, the % of control in experiment [1] is -1.87%.

For `COCC(=O)NC/C=C/c1ccc2ncnc(Nc3ccc(Oc4ccc(C)nc4)c(C)c3)c2c1` [CP-724714], in [2], the % of control is 75%.

In the case of `Cc1cc(F)c(C(=O)Nc2cccc(-c3nncn3C(C)C)n2)cc1-n1cnc(C2CC2)c1`, the % of control in experiment [3] was found to be 98%; in experiment [4] it was 100%; in experiment [5], 100%; in [6], 96%.

Consider `COc1cc(Nc2nc(C)cc(-c3cnn4nc(OC)ccc34)n2)cc(C(F)(F)F)c1`, for which the % of control in experiment [7] was found to be 73%.

For the molecule `CN(C)CCOc1ccc(-c2nc(-c3ccncc3)c(-c3ccc4c(c3)CC/C4=N\O)[nH]2)cc1`, in experiment [8], the % of control turned out to be 100%.

As for `O[C@H]1CC[C@H](Nc2ncc3nc(Nc4c(F)cc(F)cc4F)n([C@H]4CCOC4)c3n2)CC1`, the % of control in experiment [9] worked out at 84%.

With `CN(C)CCCOc1ccc(-c2cc(NCCCn3cccn3)nc(S(C)(=O)=O)n2)cc1`, the dTM in [10] was under 2 K.

Turning to `Nc1cnc(N2CCc3cc(S(=O)(=O)Nc4c(F)cc(Cl)cc4F)cc(N4CCCC4=O)c32)nc1` [TP-020n], the figures for the % of control in experiment [11] and in [12] were 58% and 96%, respectively.

Turning to `CC(=O)Nc1cccc(-n2c(=O)n(C3CC3)c(=O)c3c(Nc4ccc(I)cc4F)n(C)c(=O)c(C)c32)c1`, the % of control in experiment [13] amounted to 98%.

The record behind these values is ChEMBL document CHEMBL5465560, “Selectivity Literature for EUbOPEN Chemogenomic Library” (2024).
